From paper PMC6173696, “Structural properties of a haemophore facilitate targeted elimination of the pathogen Porphyromonas gingivalis” (Nature Communications, 2018)

Assays:
Assay type in all cases: binding
HusA L107A = molecular target: T1, HusA L107A (Porphyromonas gingivalis, UniProt Q7MSY3, L107A); test: Tryptophan fluorescence quenching assay, HusA mutant L107A; details: haemin
T1 sequence (Q7MSY3 24-218 L107A): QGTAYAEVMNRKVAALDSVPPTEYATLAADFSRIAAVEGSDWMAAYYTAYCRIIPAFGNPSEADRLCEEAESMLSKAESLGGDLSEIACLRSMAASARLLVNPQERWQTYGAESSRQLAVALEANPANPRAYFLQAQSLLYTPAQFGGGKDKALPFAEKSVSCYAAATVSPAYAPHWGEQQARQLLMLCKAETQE

HusA R121A = molecular target: T2, HusA R121A (Porphyromonas gingivalis, UniProt Q7MSY3, R121A); test: Tryptophan fluorescence quenching assay, HusA mutant R121A; details: haemin
T2 sequence (Q7MSY3 24-218 R121A): T1 sequence (Q7MSY3 24-218 L107A)

HusA L123N-V124N = molecular target: T3, HusA L123N-V124N (Porphyromonas gingivalis, UniProt Q7MSY3, L123N/V124N); test: Tryptophan fluorescence quenching assay, HusA mutant L123N-V124N; details: haemin, mutant L123N-V124N
T3 sequence (Q7MSY3 24-218 L123N/V124N): T1 sequence (Q7MSY3 24-218 L107A)
Method: (§1) The quenching of intrinsic tryptophan fluorescence of HusA upon porphyrin additions was measured using a Carey Eclipse Fluorescence Spectrophotometer (Agilent) set to a photo multiplier effect (PME) of 850. A 5-mm path length quartz cuvette was used and all spectra were acquired at room temperature. Excitation was set to 295 nm and emission was measured from 300 nm to 500 nm using excitation/emission slit widths of 5 nm. Binding assays were performed at a protein concentration of 1 μM HusA in standard buffer at a working volume of 0.5 mL. […] The fluorescence quenching of HusA by PPIX was investigated in a similar manner with the following difference: the fluorescence intensities of ten 1 μM HusA samples were measured each with increasing amounts of PPIX after a 2-h incubation period to allow equilibrium to be reached. See Supplementary Methods for correction for inner filter effect and curve fitting. […]
(§2) Correction of inner filter effect and curve fitting in tryptophan fluorescence quenching assays The concentration of NATA was chosen such that the raw fluorescence intensity was similar to the 10 uM concentrations of HusA and mutants used. […] Fluorescence intensity was scaled with respect to the starting florescence and corrected for the inner filter effect. Fluorescence at 335 nm was used to fit binding curves. […]

HusA W130N = molecular target: T4, HusA W130N (Porphyromonas gingivalis, UniProt Q7MSY3, W130N); test: Tryptophan fluorescence quenching assay, HusA mutant W130N; details: haemin
T4 sequence (Q7MSY3 24-218 W130N): T1 sequence (Q7MSY3 24-218 L107A)

HusA Y133A = molecular target: T5, HusA Y133A (Porphyromonas gingivalis, UniProt Q7MSY3, Y133A); test: Tryptophan fluorescence quenching assay, HusA mutant Y133A; details: haemin
T5 sequence (Q7MSY3 24-218 Y133A): T1 sequence (Q7MSY3 24-218 L107A)

HusA R139A = molecular target: T6, HusA R139A (Porphyromonas gingivalis, UniProt Q7MSY3, R139A); test: Tryptophan fluorescence quenching assay, HusA mutant R139A; details: haemin
T6 sequence (Q7MSY3 24-218 R139A): T1 sequence (Q7MSY3 24-218 L107A)

HusA Y164A = molecular target: T7, HusA Y164A (Porphyromonas gingivalis, UniProt Q7MSY3, Y164A); test: Tryptophan fluorescence quenching assay, HusA mutant Y164A; details: haemin
T7 sequence (Q7MSY3 24-218 Y164A): T1 sequence (Q7MSY3 24-218 L107A)
Method: as §1, §2

Work on `C=CC1=C(C)c2cc3[nH]c(cc4nc(cc5[nH]c(cc1n2)c(C)c5CCC(=O)O)C(CCC(=O)O)=C4C)c(C)c3C=C.[Fe+3]` [haemin] yielded a Kd (HusA L107A) of 5.5 ± 0.3 µM, a Kd (HusA R121A) of 6.7 ± 1.2 µM and a Kd (HusA L123N-V124N) of 10.3 ± 0.7 µM. It also gave a Kd (HusA W130N) of 16 ± 1.8 µM, a Kd (HusA Y133A) of 7.4 ± 0.6 µM and a Kd (HusA R139A) of 6.3 ± 1.4 µM. For the same compound, the Kd (HusA Y164A) was 13 ± 0.7 µM.
